The results in this text go back to US20260317324A1, “BIFUNCTIONAL COMPOUNDS FOR DEGRADING BRAF VIA UBIQUITIN PROTEOSOME PATHWAY” (Nurix Therapeutics, Inc., priority 2023, published 2026).

Common to all, as to type: cell-based
One assay addresses T1, BRAF G469A (Homo sapiens, UniProt P15056, G469A).
T1 construct: Horizon Discovery (HCT-116 BRAF−/− cells); host or cells: HCT-116 BRAF−/− cells, clone 34, lentiviral transduction
The experiment in a line: BRAF HiBiT degradation assay, C-terminal HiBiT-tagged BRAF G469A overexpressed in HCT-116 BRAF−/− cells (clone 34), Nano-Glo HiBiT Lytic assay. A digest of the protocol:
(§1)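 Cells 3,000/well, 24 h at 37 °C; cpds 1 μM–0.01 nM, 11-pt half-log, duplicate, 0.2% DMSO. Readout: HiBiT lytic luminescence, 10 min at RT. Normalized to DMSO-treated tagged cells, with DMSO-treated wild-type HCT-116 as background. DC50 = fitted concentration at Y=50; Obs. Dmax = % degraded at maximal effect.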

A further assay addresses T2, BRAF V600E (Homo sapiens, UniProt P15056, V600E).
T2 construct: endogenous C-terminal HiBiT fusion tag on BRAF V600E allele; endogenous in cells; host or cells: A375 clone 1F10 (CRISPR-Cas9 knock-in of the HiBiT tag; parental A375 from ATCC)
Description: BRAF HiBiT degradation assay, C-terminal HiBiT-tagged BRAF V600E A375 cells (clone 1F10), Nano-Glo HiBiT Lytic assay. The conditions noted are these: for Dmax: A-375. A digest of the protocol: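 Luminescence read-out: Nano-Glo HiBiT lytic reagent with LgBiT, 10 min at room temperature. Signal normalised to DMSO-treated tagged cells, with wildtype A375 as background. Cells are endogenously tagged BRAF V600E A375 clone 1F10. Compounds were tested from 1 μM to 0.01 nM; Dmax is observed % degraded at maximal effect.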
Background: With HiBiT, luminescence reflects the tagged protein that the partner subunit can reach.

Another assay deals with T3, BRAF D594G (Homo sapiens, UniProt P15056, D594G).
T3 construct: Horizon Discovery (HCT-116 BRAF−/− cells); host or cells: HCT-116 BRAF−/− cells, clone 63, lentiviral transduction
The experiment in a line: BRAF HiBiT degradation assay, C-terminal HiBiT-tagged BRAF D594G overexpressed in HCT-116 BRAF−/− cells (clone 63), Nano-Glo HiBiT Lytic assay. A digest of the protocol:
as §1

A further assay concerns the target T4, BRAF G466V (Homo sapiens, UniProt P15056, G466V).
T4 construct: Horizon Discovery (HCT-116 BRAF−/− cells); host or cells: HCT-116 BRAF−/− cells, clone 8, lentiviral transduction
The experiment in a line: BRAF HiBiT degradation assay, C-terminal HiBiT-tagged BRAF G466V overexpressed in HCT-116 BRAF−/− cells (clone 8), Nano-Glo HiBiT Lytic assay. A digest of the protocol:
as §1

The mark [1] stands for this setting: Class 2, BRAF G469A, DC50 at 50%: fitted conc. at Y=50.
The mark [2] stands for this setting: HCT-116, Class 2, BRAF G469A, percentage protein degraded at maximal compound effect relative to DMSO.
[3] abbreviates: A375 (BRAF V600E), DC50 at 50%: fitted conc. at Y=50.
Setting [4] is: A375 (BRAF V600E), percentage protein degraded at maximal compound effect relative to DMSO.
The mark [5] stands for this setting: BRAF D594G, DC50 at 50%: fitted conc. at Y=50.
[6] abbreviates: HCT-116, BRAF D594G, percentage protein degraded at maximal compound effect relative to DMSO.
The mark [7] stands for this setting: BRAF G466V, DC50 at 50%: fitted conc. at Y=50.
[8] abbreviates: HCT-116, BRAF G466V, percentage protein degraded at maximal compound effect relative to DMSO.
Setting [9] is: BRAF G469A (Class 2), HCT-116 BRAF−/− cells, DC50 at 50% degradation.
Where [10] appears, read: BRAF G469A (Class 2), HCT-116 BRAF−/− cells, observed Dmax relative to DMSO control.
Setting [11] is: A375 (BRAF V600E, Class 1), DC50 at 50% degradation.
Setting [12] is: A375 (BRAF V600E, Class 1), observed Dmax, % protein degraded relative to DMSO control.
[13] abbreviates: BRAF D594G (Class 3), HCT-116 BRAF−/− cells, DC50 at 50% degradation.
The mark [14] stands for this setting: BRAF D594G (Class 3), HCT-116 BRAF−/− cells, observed Dmax relative to DMSO control.
Setting [15] is: BRAF G466V (Class 3), HCT-116 BRAF−/− cells, DC50 at 50% degradation.
Setting [16] is: BRAF G466V (Class 3), HCT-116 BRAF−/− cells, observed Dmax relative to DMSO control.

T4 sequence (P15056 whole entry G466V): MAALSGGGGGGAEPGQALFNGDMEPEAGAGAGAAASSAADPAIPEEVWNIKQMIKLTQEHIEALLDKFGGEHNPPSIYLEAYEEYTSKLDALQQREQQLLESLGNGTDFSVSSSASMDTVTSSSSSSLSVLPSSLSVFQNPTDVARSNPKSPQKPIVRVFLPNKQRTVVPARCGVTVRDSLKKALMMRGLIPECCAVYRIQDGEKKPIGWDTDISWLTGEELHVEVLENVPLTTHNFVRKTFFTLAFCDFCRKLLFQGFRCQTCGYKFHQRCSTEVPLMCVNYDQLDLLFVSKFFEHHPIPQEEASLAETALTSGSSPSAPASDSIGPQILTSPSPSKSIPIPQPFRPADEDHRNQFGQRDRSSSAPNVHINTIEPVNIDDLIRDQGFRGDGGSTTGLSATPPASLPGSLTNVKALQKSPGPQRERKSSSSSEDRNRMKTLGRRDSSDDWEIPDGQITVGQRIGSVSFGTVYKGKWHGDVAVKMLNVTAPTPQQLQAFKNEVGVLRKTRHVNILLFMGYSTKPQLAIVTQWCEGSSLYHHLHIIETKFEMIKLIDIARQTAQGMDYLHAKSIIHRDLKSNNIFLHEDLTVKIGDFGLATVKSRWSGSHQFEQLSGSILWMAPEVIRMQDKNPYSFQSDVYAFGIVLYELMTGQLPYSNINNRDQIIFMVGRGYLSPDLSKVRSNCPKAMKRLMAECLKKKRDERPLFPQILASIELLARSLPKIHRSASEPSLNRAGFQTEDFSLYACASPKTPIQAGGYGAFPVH
T1 sequence (P15056 whole entry G469A): as the sequence (P15056 whole entry G466V) above, with V466G, G469A counted along it
T3 sequence (P15056 whole entry D594G): as the sequence (P15056 whole entry G466V) above, with V466G, D594G counted along it
T2 sequence (P15056 whole entry V600E, the tested form may be a part): as the sequence (P15056 whole entry G466V) above, with V466G, V600E counted along it

As usually defined, the DC50 is the concentration at which degradation of the target reaches its halfway point. A higher DC50 goes with degradation only at high concentration. For orientation: Dmax means the greatest extent of degradation seen. With `CCCS(=O)(=O)Nc1cccc(-c2nc(C(C)(C)C)sc2-c2ccnc(Nc3ccc(N4CCN(C(=O)[C@@H]5CCN(c6ccc([C@H]7CCC(=O)NC7=O)cn6)C5)CC4)c(F)c3)n2)c1F` (racemic) [Compound 49, Rac-N-(3-(2-(tert-butyl)-5-(2-((4-(4-((R)-1-(5-((R)-2,6-dioxopiperidin-3-yl)pyridin-2-yl)pyrrolidine-3-carbonyl)piperazin-1-yl)-3-fluorophenyl)amino)pyrimidin-4-yl)thiazol-4-yl)-2-fluorophenyl)propane-1-sulfonamide], the half-maximal degradation concentration (DC50) at BRAF G469A (setting [1]) was > 500 nM; on BRAF V600E (setting [3]), < 10 nM; at BRAF D594G (setting [5]), > 500 nM; at BRAF G466V (setting [7]) it was > 500 nM. Besides, the maximal degradation (Dmax) on BRAF G469A (setting [2]) was 30 to 70%; on BRAF V600E (setting [4]) it was > 70%; on BRAF D594G (setting [6]), 30 to 70%; on BRAF G466V (setting [8]) it was 30 to 70%.

Take `CCCS(=O)(=O)Nc1cccc(-c2nc(C(C)(C)C)sc2-c2ccnc(Nc3cnn(C4CCN(CC5CCN(c6ccc(C(=O)N[C@@H]7CCC(=O)NC7=O)nc6)CC5)CC4)c3)n2)c1F` [Compound 67, 5-{4-[(4-{4-[(4-{2-tert-butyl-4-[2-fluoro-3-(propane-1-sulfonamido)phenyl]-1,3-thiazol-5-yl}pyrimidin-2-yl)amino]-1H-pyrazol-1-yl}piperidin-1-yl)methyl]piperidin-1-yl}-N-[(3R)-2,6-dioxopiperidin-3-yl]pyridine-2-carboxamide]: the half-maximal degradation concentration (DC50) is > 500 nM on BRAF G469A (setting [1]), < 10 nM at BRAF V600E (setting [3]), > 500 nM on BRAF D594G (setting [5]) and > 500 nM at BRAF G466V (setting [7]). The maximal degradation (Dmax) was < 30% on BRAF G469A (setting [2]), 30 to 70% on BRAF V600E (setting [4]), 30 to 70% at BRAF D594G (setting [6]) and < 30% at BRAF G466V (setting [8]).

`CCCS(=O)(=O)Nc1cccc(-c2nc(C3CCN(C(=O)C4CCN(C(=O)C5CCN(c6ccc(C7CCC(=O)NC7=O)cn6)CC5)CC4)CC3)sc2-c2ccnc(N[C@H](C)CO)n2)c1F` (mixture of isomers) [Compound 180, N-[3-(2-{1-[1-(1-{5-[(3RS)-2,6-dioxopiperidin-3-yl]pyridin-2-yl}piperidine-4-carbonyl)piperidine-4-carbonyl]piperidin-4-yl}-5-(2-{[(2R)-1-hydroxypropan-2-yl]amino}pyrimidin-4-yl)-1,3-thiazol-4-yl)-2-fluorophenyl]propane-1-sulfonamide]: the DC50 on BRAF G469A (setting [1]) was 10 to 50 nM; on BRAF V600E (setting [3]), < 10 nM; at BRAF D594G (setting [5]) it was < 10 nM; on BRAF G466V (setting [7]) it was < 10 nM. The Dmax was 30 to 70% at BRAF G469A (setting [2]), > 70% at BRAF V600E (setting [4]), 30 to 70% on BRAF D594G (setting [6]) and 30 to 70% on BRAF G466V (setting [8]).

Turning to `O=C1CCC(c2cc(F)c(N3CCC(CN4CCN(c5ccc(-n6cc(-c7cc(Cl)cc(NS(=O)(=O)N8CCCC8)c7F)c(-c7ccncc7)n6)cc5)CC4)CC3)cc2F)C(=O)N1` (racemic) [Compound 386, Rac-N-{5-chloro-3-[1-(4-{4-[(1-{4-[(3R)-2,6-dioxopiperidin-3-yl]-2,5-difluorophenyl}piperidin-4-yl)methyl]piperazin-1-yl}phenyl)-3-(pyridin-4-yl)-1H-pyrazol-4-yl]-2-fluorophenyl}pyrrolidine-1-sulfonamide], the DC50 at BRAF G469A (setting [9]) lay in the range of 50 to 500 nM; on BRAF V600E (setting [11]) it was 10 to 50 nM; at BRAF D594G (setting [13]), 10 to 50 nM; on BRAF G466V (setting [15]), 10 to 50 nM. The greatest degradation seen (Dmax) was 30 to 70% on BRAF G469A (setting [10]), > 70% at BRAF V600E (setting [12]), 30 to 70% at BRAF D594G (setting [14]) and > 70% on BRAF G466V (setting [16]).

As for `O=C1CCN(c2ccc(N3CCC(CN4CCN(c5ccc(-n6cc(-c7cc(Cl)cc(NS(=O)(=O)C8CCCC8)c7F)c(-c7ccncc7)n6)cc5)CC4)CC3)nc2)C(=O)N1` [Compound 388, N-[5-chloro-3-(1-{4-[4-({1-[5-(2,4-dioxo-1,3-diazinan-1-yl)pyridin-2-yl]piperidin-4-yl}methyl)piperazin-1-yl]phenyl}-3-(pyridin-4-yl)-1H-pyrazol-4-yl)-2-fluorophenyl]cyclopentanesulfonamide], the DC50 on BRAF G469A (setting [9]) is 10 to 50 nM; at BRAF V600E (setting [11]), < 10 nM; on BRAF D594G (setting [13]), < 10 nM; at BRAF G466V (setting [15]), < 10 nM. For the same compound, the Dmax is 30 to 70% on BRAF G469A (setting [10]), > 70% at BRAF V600E (setting [12]), 30 to 70% on BRAF D594G (setting [14]) and > 70% at BRAF G466V (setting [16]).

Consider `CCCS(=O)(=O)Nc1cccc(-c2nc(C(C)(C)C)sc2-c2ccnc(NC3CC4(C3)CN(C(=O)CN3CCC5(CC3)CN(c3ccc6c(c3)C(=O)N(C3CCC(=O)NC3=O)C6=O)C5)C4)n2)c1F` (racemic) [Compound 152, Rac-N-(3-{2-tert-butyl-5-[2-({2-[2-(2-{2-[(3R)-2,6-dioxopiperidin-3-yl]-1,3-dioxo-2,3-dihydro-1H-isoindol-5-yl}-2,7-diazaspiro[3.5]nonan-7-yl)acetyl]-2-azaspiro[3.3]heptan-6-yl}amino)pyrimidin-4-yl]-1,3-thiazol-4-yl}-2-fluorophenyl)propane-1-sulfonamide], for which the DC50 was > 500 nM at BRAF G469A (setting [1]), 10 to 50 nM on BRAF V600E (setting [3]), > 500 nM at BRAF D594G (setting [5]) and > 500 nM on BRAF G466V (setting [7]). Also, the Dmax on BRAF G469A (setting [2]) is < 30%; at BRAF V600E (setting [4]), 30 to 70%; on BRAF D594G (setting [6]), 30 to 70%; at BRAF G466V (setting [8]), < 30%.

As to `CCCS(=O)(=O)Nc1cccc(-c2nc(-c3ccc(N4CCN(CC5CCN(c6ccc(C7CCC(=O)NC7=O)cn6)CC5)CC4)cc3)sc2-c2ccnc(N)n2)c1F` (racemic) [Compound 187, Rac-N-{3-[5-(2-aminopyrimidin-4-yl)-2-(4-{4-[(1-{5-[(3R)-2,6-dioxopiperidin-3-yl]pyridin-2-yl}piperidin-4-yl)methyl]piperazin-1-yl}phenyl)-1,3-thiazol-4-yl]-2-fluorophenyl}propane-1-sulfonamide], the half-maximal degradation concentration (DC50) at BRAF G469A (setting [1]) is 10 to 50 nM; on BRAF V600E (setting [3]) it was < 10 nM; on BRAF D594G (setting [5]) it was < 10 nM; at BRAF G466V (setting [7]), 10 to 50 nM. Further, the Dmax at BRAF G469A (setting [2]) is 30 to 70%; on BRAF V600E (setting [4]) it was > 70%; at BRAF D594G (setting [6]) it was 30 to 70%; at BRAF G466V (setting [8]) it was 30 to 70%.

`O=C1CC[C@H](c2ccc(N3CCC(CN4CCN(c5cnc(-n6cc(-c7cc(Cl)cc(NS(=O)(=O)N8CCCC8)c7F)c(-c7ccncc7)n6)nc5)CC4)CC3)cc2)C(=O)N1` [Compound 360, N-{5-chloro-3-[1-(5-{4-[(1-{4-[(3R)-2,6-dioxopiperidin-3-yl]phenyl}piperidin-4-yl)methyl]piperazin-1-yl}pyrimidin-2-yl)-3-(pyridin-4-yl)-1H-pyrazol-4-yl]-2-fluorophenyl}pyrrolidine-1-sulfonamide]: the DC50 on BRAF G469A (setting [9]), at BRAF V600E (setting [11]), at BRAF D594G (setting [13]) and at BRAF G466V (setting [15]) was < 10 nM throughout. Besides, the Dmax is 30 to 70% at BRAF G469A (setting [10]), > 70% on BRAF V600E (setting [12]), > 70% on BRAF D594G (setting [14]) and > 70% at BRAF G466V (setting [16]).

In the case of `O=C1CC[C@H](c2ccc(N3CCC(CN4CCN(c5ccc(-n6cc(-c7cc(F)cc(NS(=O)(=O)N8CCCC8)c7F)c(-c7ccncc7)n6)cc5)CC4)CC3)cc2)C(=O)N1` [Compound 299, N-{3-[1-(4-{4-[(1-{4-[(3R)-2,6-dioxopiperidin-3-yl]phenyl}piperidin-4-yl)methyl]piperazin-1-yl}phenyl)-3-(pyridin-4-yl)-1H-pyrazol-4-yl]-2,5-difluorophenyl}pyrrolidine-1-sulfonamide], the DC50 on BRAF G469A (setting [9]) was 10 to 50 nM; at BRAF V600E (setting [11]), < 10 nM; on BRAF D594G (setting [13]), < 10 nM; at BRAF G466V (setting [15]), < 10 nM. In addition, the Dmax on BRAF G469A (setting [10]) was 30 to 70%; on BRAF V600E (setting [12]) it was > 70%; on BRAF D594G (setting [14]), 30 to 70%; at BRAF G466V (setting [16]), > 70%.
